From patent publication US8455468B2, “Methods for the treatment of a traumatic central nervous system injury” (priority 2005, dated 2013)

How the values were obtained:
clinical = details: human, in vivo
Description: Multiple blood samples were obtained from 11 female and 21 male trauma patients receiving PG and 1 female and 3 male patients receiving placebo infusions for 72 h. Values for CSS, CL, t1/2 and Vd were obtained using AUC(0-72) and post-infusion blood samples.
This study was approved by the Institutional Review Board of Emory University, the Drug Safety Monitoring Board (NINDS) and the FDA (IND #58,986). After obtaining informed consent, thirty-six patients meeting the inclusion criteria outlined as follows were studied. […] Inclusion criteria required that each patient be ≧18 years old, have a closed head injury arising from blunt trauma, have a moderate to severe brain injury (Index Glasgow Coma Score (GCS) 4-12) and arrive in the Emergency Department and obtain informed consent (from next-of-kin) in less than 11 hours post injury.
Aliquots of each solution were assayed for final concentration and sterility. […] Each kit contained six vials. […] The placebo kits were also formulated with 95% ethanol. Because of the alcohol concentration, doses of study drug were mixed with Intralipid® immediately prior to infusion. Each infusion dose was administered over 12 hours and repeated every 12 hours for a total of 72 hours. […] The dosing worksheet was also used to calculate the volume of study medication to be diluted in Intralipid® for each of the remaining infusion reservoirs at a standard rate of 10 cc/hr.
Nine (5 ml) samples were obtained at the following times during the infusion: pre-infusion (0), 4, 6, 12, 24, 36, 48, 60, and 72 hours. An additional five samples were obtained following cessation of infusion at: 0.5, 1, 2, 4 and 8 hours. Samples were allowed to clot, and then centrifuged. After that, the serum was removed and stored at −70° C. until analyzed.
The primary pharmacokinetic parameter, CL, was estimated as the ratio of the dose to area under the serum concentration-time curve (AUC). AUC's were calculated using the linear trapezoidal rule (Veng-Pedersen (1989) Clin Pharmacokinet, 17(6):424-40). The elimination phase rate constant, ke, was calculated from the serum concentration-time data following the termination of the infusion using iterative non-linear regression (WinNonlin®, Pharsight Corporation, Mountain View, Calif.). Volume of Distribution was estimated as the ratio of CL and ke. Css was estimated as the ratio of Dose and CL. Actual Css was defined as the concentration achieved when the slope of the serum concentration-time curve for three or more consecutive samples was not different from zero.
Predicted Css concentrations were calculated as the ratio of the infusion rate/clearance. Differences between predicted and measured Css were made using a ‘t’ test for repeated measures. A Bland-Altman analysis was conducted to assess the magnitude of any bias associated with this approach (Bland and Altman (1986) Lancet, 1(8476):307-10). Pharmacokinetic parameter comparisons between male and female were accomplished using a ‘t’ test for independent means. A p value of less than 0.05 was considered the minimum level for rejection of the null hypothesis.

[1] = Stability of progesterone solutions (HPLC-UV); type: physicochemical
Description: For all stability testing, the method of […], et al. was used with minor modifications ([…], et al. (1999) Journal of Pharmaceutical & Biomedical Analysis, 19(5):803-8). The method was originally validated to assess the stability of medroxyprogesterone acetate and estradiol valerate tablets. It is an isocratic HPLC-UV method utilizing external standardization. A 5 micron, 4.6×250 mm BDS-Hypersil C-18 column (Keystone Scientific) was used and the analyses were completed on an Agilent 1100 model HPLC system with photodiode array detector. The mobile phase consisted of 40% 0.07M ammonium acetate buffer, pH 7.2 and 60% acetonitrile. Detection was at […]. […] Reproducibility as assessed by 10 injections of the same preparation on multiple different days was always less that 10%. […] A five point standard curve was run with each analysis.

[2] = Solubility of progesterone in carrier; type: physicochemical
moderate to severe TBI = assay: Pilot phase II randomized double-blind trial of progesterone for traumatic brain injury, preliminary evaluation (Example 2); type: in vivo, human
Description: The administration protocol was carried out was described above in Example 1.
To determine if a therapeutic response was achieved, the following endpoints were monitored: • ICP reduction determined by calculating “therapeutic intensity level” (ICP-TIL); • duration of coma (injury to awaking); • mortality one-month post injury; • neurological outcome 1 month and 1 year post-injury, as determined by Glasgow outcome scale (GOS), Disability rating scale (DRS) and Galveston orientation and amnesia test (GOAT).
The administration protocol and pharmaceutical composition administered are described in detail in Example 1. Follow up regarding condition occurred at 30 days and 1 year.

acute TBI [3] = system: acute TBI
Description: This phase II, randomized, double blind, placebo-controlled clinical trial was conducted at an urban, level I trauma center. 100 adults presenting within 11 hours of a blunt TBI with a Glasgow Coma Scale score of 4-12 were enrolled with proxy consent. […] Blinded observers closely monitored patients for the occurrence of adverse events, and initial functional outcomes were assessed 30 days post-injury. The primary safety outcome was difference in adverse event rates, including mortality. The primary measure of activity was dichotomized Glasgow outcome scale extended (GOSE) 30 days post injury.
We also hoped to detect signals of activity.
According to the U.S. Food and Drug Administration, an “adverse event” is any undesirable medical event occurring to a subject in a clinical trial, whether or not related to the study drug. This includes events not seen at baseline, or worsened if present at baseline. “Serious adverse events” are defined as death, immediate risk of death, or suspicion that use or continued use would result in the patient's death, prolongation of existing hospitalization, persistent or significant disability/incapacity, or a congenital anomaly/birth defect.
These included any thromboembolic event (deep vein thrombosis, thrombophlebitis, ischemic myocardial infarction, pulmonary embolism, stroke or transient ischemic attack), elevated liver enzymes, temperature elevation, allergic reactions, and hyperglycemia. […] An independent internal safety monitor made the determination if an adverse event was associated with study treatment. Both the FDA and an independent NIH-appointed data safety monitoring board independently reviewed these determinations.
Interventions: Following proxy consent, patients were placed in one of 8 clinical subgroups defined by gender (male versus female), race (black versus all others) and TBI severity (moderate versus severe). […] This asymmetric approach was adopted at the request of our NIH-appointed DSMB to maximize the number of patients receiving study drug while maintaining blinding.
Whenever a patient was enrolled, the next kit in sequence for that subgroup was used to prepare infusions. […] The remaining vials were used to prepare 5 subsequent 12-hour infusions at the same standard rate of 10 mls/hour for a total of 3 days of treatment. Details of drug monitoring are reported elsewhere (Wright et al. (2005) J Clin Pharmacol 45(6):640-648).
Methods of Measurement: To assess drug safety, study personnel rounded daily to document the occurrence of adverse events (AEs) or serious adverse events (SAES). Hourly vital signs (blood pressure, heart rate, respiratory rate, temperature, and pulse oximetry), intracranial pressure readings, and other parameters (mean arterial pressure, cerebral perfusion pressure, and fluid balance), were abstracted from each patient's chart. Laboratory values were obtained from the hospital's information system, and concomitant medications and interventions were noted.
Whenever an SAE occurred, an independent board-certified neurosurgeon assessed its potential relationship to study treatment using pre-defined scale. SAEs were reported within 24 hours to the Institutional Review Board (IRB), our NIH-appointed Data Safety Monitoring Board (DSMB), and the U.S. Food and Drug Administration. All other adverse events were reported to on a weekly basis.
Primary Data Analysis—Treatment and placebo groups were compared with respect to a variety of demographic, historical and prehospital characteristics to ensure that important independent predictors of outcome were equally distributed. Next, the groups were compared with respect to rates of adverse and serious adverse events, using Fisher's exact test.

acute TBI [4] = assay: Phase II ProTECT trial: physiological parameters during infusion; type: in vivo, human
Description: Primary Data Analysis—Treatment and placebo groups were compared with respect to a variety of demographic, historical and prehospital characteristics to ensure that important independent predictors of outcome were equally distributed. Next, the groups were compared with respect to rates of adverse and serious adverse events, using Fisher's exact test. Generalized linear model analysis using a negative binomial distribution was used to compare rates of events that occurred multiple times per patient within the first 30 days (McCullagh and Nelder (1989) Generalized Linear Models (2nd ed, Chapman & Hill)). Then, group specific differences in 30-day outcomes. Fisher's exact test was used to analyze GOSE scores dichotomized into “good or moderate recovery” versus all other levels. Wilcoxon's rank sum test was used to compare group specific DRS scores. Mean and median durations of coma and post-traumatic amnesia were compared using student's t-test. All analyses were stratified on an a priori basis by brain injury severity (iGCS 4-8 (severe) versus iGCS 9-12 (moderate)). Longitudinal mixed effects models were used to analyze ICP-TIL as well as other hourly or daily clinical measurements from enrollment through treatment day 4.

acute TBI [5] = assay: Phase II ProTECT trial: outcome variables 30 days post injury; type: in vivo, human
Description: In addition to monitoring subjects for signs of harm, we hoped to detect signals of activity. […] For this preliminary study, our primary outcome of interest was Glasgow Outcome Scale Extended (GOSE) 30 days post-injury. […] Thirty days following each injury event, we assessed each patient's Glasgow Outcome Score Extended (GOSE) and Disability Rating Scale (DRS). Patients who were severely impaired were classified as “not testable”-a surrogate marker for a poor outcome. Reliability codes were used to record reasons for non-administration of a particular measure, such as physical impairment (e.g., hemiparesis) cognitive impairment (e.g., could not understand instructions), or intoxication. One-year outcomes will be reported at a later date. […] Our secondary aim was to look for signs of drug activity by assessing several measures of outcome. Our a priori primary measure of outcome was the Glasgow Outcome Scale-Extended ([…] et al. (1998) Journal of Neurotrauma 15(8):587-597). […] (1987) Journal of Neurosurgery 67(6):832-840) and 5) the Disability Rating Scale (DRS) (Hall et al. […] Variables determined to be independently associated with all-cause mortality or CNS related-death, such as iGCS (dichotomized into moderate versus severe), injury severity score and Marshall CT score were incorporated in a stepwise logistic regression analyses. […]

What does the source list for `CC(=O)[C@H]1CC[C@H]2[C@@H]3CCC4=CC(=O)CC[C@]4(C)[C@H]3CC[C@]12C` [progesterone, pregn-4-ene-3,20-dione]?
maintenance infusion rate to achieve target concentration of 450±100 ng/mL (clinical; both): approximately 0.8 mg/kg/h; clearance (clinical; both, CL): 28.8 mL/min/kg; half-life (clinical; both, terminal half-life): 1.78 ± 1 h; Vd (clinical; female): 1.33 L/kg; concentration at 0 h (clinical; female): 2.86 ± 1.37 ng/mL; clearance (clinical; female, CL): 31.3 mL/min/kg; Vd (clinical; male): 1.62 L/kg; concentration at 0 h (clinical; male): 2.53 ± 1.73 ng/mL; clearance (clinical; male, CL): 27.7 mL/min/kg; clearance (clinical; male, iv): 22.2 mL/min/kg; stability of Intralipid solutions containing progesterone in 95% ethyl alcohol [1]: ≥ 24 h; stability of solution of progesterone in 95% ethyl alcohol ([1]; room temperature): up to 2 years; solubility [2]: soluble only in alcohol; reduction in brain deaths (moderate to severe TBI; vs control): 60%; proportion of subjects experiencing brain death (moderate to severe TBI; vs group B, p=0.0295 Fisher's exact test): significantly lower proportion; Death within 30 days (acute TBI [3]; 30-day adverse event rate): 13.0%; Acute respiratory distress syndrome (acute TBI [3]; both, human, in vivo, 30 days): 2.6%; Cardiac Arrhythmia (acute TBI [3]; both, human, in vivo, 30 days): 5.2%; Central nervous system infection (acute TBI [3]; both, human, in vivo, 30 days): 1.3%; Cholestatic Jaundice (acute TBI [3]; both, human, in vivo, 30 days): 6.5%; Fever (acute TBI [3]; both, human, in vivo, 30 days): 70.1%; Gastrointestinal Bleed (acute TBI [3]; both, human, in vivo, 30 days): 5.2%; Hyperglycemia-non DM (acute TBI [3]; both, human, in vivo, 30 days): 27.3%; Hypertension (acute TBI [3]; both, human, in vivo, 30 days): 11.7%; Hypotension (acute TBI [3]; both, human, in vivo, 30 days): 9.1%; Hypothermia (acute TBI [3]; both, human, in vivo, 30 days): 5.2%; Hypoxemia (acute TBI [3]; both, human, in vivo, 30 days): 11.7%; Increase Liver Enzyme (acute TBI [3]; both, human, in vivo, 30 days): 6.5%; Phlebitis at Injection Site (acute TBI [3]; both, human, in vivo, 30 days): 1.3%; Rash or Hives (acute TBI [3]; both, human, in vivo, 30 days): 2.6%; Seizures (acute TBI [3]; both, human, in vivo, 30 days): 5.2%; Sepsis (acute TBI [3]; both, human, in vivo, 30 days): 2.6%; Shock (acute TBI [3]; both, human, in vivo, 30 days): 2.6%; Suspected Pneumonia (acute TBI [3]; both, human, in vivo, 30 days): 11.7%; Syndrome of inappropriate ADH (acute TBI [3]; both, human, in vivo, 30 days): 1.3%; Tachycardia (acute TBI [3]; both, human, in vivo, 30 days): 24.7%; Thromboembolic Disease (acute TBI [3]; both, human, in vivo, 30 days): 3.9%; adverse events specifically ascribed to administration (acute TBI [3]; in vivo): two cases of superficial phlebitis at the IV site; deep vein thrombosis (acute TBI [3]; in vivo): Three patients; rise in mean temperature over the infusion interval, treatment by time interaction slope (acute TBI [3]; in vivo): −0.0055; serious adverse events attributed to study drug (acute TBI [3]; in vivo): No serious adverse events were attributed to progesterone; mean intracranial pressure levels (ICPs) trend (acute TBI [4]; first 4 days post-injury, subjects with monitors, not statistically significant): remained stable; Mean Duration of Pressures Exceeding Threshold Values: CPP < 60 (acute TBI [4]; in vivo): 6.9 h; Mean Duration of Pressures Exceeding Threshold Values: ICP > 25 (acute TBI [4]; in vivo): 5.0 h; Mean Duration of Pressures Exceeding Threshold Values: MAP < 70 (acute TBI [4]; in vivo): 2.5 h; Mean Duration of Pressures Exceeding Threshold Values: Systolic BP < 90 (acute TBI [4]; in vivo): 2.7 h; Mean Frequency of Pressures Exceeding Threshold Values: CPP < 60, Rate/1000 consecutive readings (acute TBI [4]; in vivo): 92.9; Mean Frequency of Pressures Exceeding Threshold Values: ICP > 25, Rate/1000 consecutive readings (acute TBI [4]; in vivo): 70.2; Mean Frequency of Pressures Exceeding Threshold Values: MAP < 70, Rate/1000 consecutive readings (acute TBI [4]; in vivo): 29.5; Mean Frequency of Pressures Exceeding Threshold Values: Systolic BP < 90, Rate/1000 consecutive readings (acute TBI [4]; in vivo): 32.1; Percent of Patients with Clinical Values Exceeding the Threshold: CPP < 60 (acute TBI [4]; in vivo): 48.7%; Percent of Patients with Clinical Values Exceeding the Threshold: ICP > 25 (acute TBI [4]; in vivo): 32.4%; Percent of Patients with Clinical Values Exceeding the Threshold: MAP < 70 (acute TBI [4]; in vivo): 29.0%; Percent of Patients with Clinical Values Exceeding the Threshold: Systolic BP < 90 (acute TBI [4]; in vivo): 29.0%; Cerebral Perfusion Pressure, mean (acute TBI [4]; infusion day 0): 70.3 mmHg; Cerebral Perfusion Pressure, mean (acute TBI [4]; infusion day 1): 73.4 mmHg; Fluid Balance, mean (acute TBI [4]; infusion day 1): 767.9 + mls; Cerebral Perfusion Pressure, mean (acute TBI [4]; infusion day 2): 75.9 mmHg; Fluid Balance, mean (acute TBI [4]; infusion day 2): 1189.5 + mls; Cerebral Perfusion Pressure, mean (acute TBI [4]; infusion day 3): 74.9 mmHg; Fluid Balance, mean (acute TBI [4]; infusion day 3): 802.0 + mls; Cerebral Perfusion Pressure, mean (acute TBI [4]; infusion day 4): 73.8 mmHg; Fluid Balance, mean (acute TBI [4]; infusion day 4): 818.7 + mls; Disability Rating Score: Total DRS, mean (acute TBI [5]; Index GCS = 9-12): 5; DRS scores vs placebo (acute TBI [5]; moderately brain-injured patients): significantly better DRS scores
